# Assay results taken from WO2010003376A1, “Methods for treatment and/or prevention of cancer with andrographolide (and) and use thereof” (Chinese University of Hong Kong CUHK, priority 2008, dated 2010).
# Where two headings read alike, the source gives them in different places.
# Assays:
# [1] = system: HepG2 cells, the human liver cancer cells; test: Neutral red assay (cell viability), HepG2; assay type: cell-based; conditions: for IC50: Homo sapiens, read-out: IC50 (concentration that reduces cell viability by 50%)
# [2] = system: WRL 68, human normal liver embryo cells; test: Neutral red assay (cell viability), WRL 68; assay type: cell-based; conditions: for IC50: Homo sapiens, WRL68, read-out: IC50 (concentration that reduces cell viability by 50%)
# [3] = system: Clone 9, rat normal liver cells; test: Neutral red assay (cell viability), Clone 9; assay type: cell-based; conditions: for IC50: Rattus norvegicus, read-out: IC50 (concentration that reduces cell viability by 50%)
# HepG2 cells [4] = test: Flow cytometry (cell cycle analysis, PI staining); assay type: cell-based, human
# HepG2 cells [5] = test: DNA fragmentation (DNA gel electrophoresis); assay type: cell-based, human; conditions: 50 μM, 72 hrs
# [6] = system: gene expressions of HepG2 cells; test: cDNA microarray analysis of gene expression (human toxicology and drug metabolism); assay type: cell-based; conditions: 16 μM, 48 hrs, vs control
# [7] = system: hepatocarcinogenesis in rats (DEN & CCl4); test: Gross examination of rat liver, DEN/CCl4 hepatocarcinogenesis; assay type: in vivo
# [8] = system: hepatocarcinogenesis in rats (DEN & CCl4); test: Relative liver weight, DEN/CCl4 hepatocarcinogenesis; assay type: in vivo, rat; conditions: both promotion and progression, 10 mg/kg orally
# [9] = system: liver damage in rats (DEN & CCl4); test: Serum AST and ALT assays, DEN/CCl4 hepatocarcinogenesis; assay type: in vivo, rat; conditions: 10 mg/kg orally
# rat liver (DEN & CCl4) = test: Hematoxylin & Eosin staining of rat liver sections; assay type: in vivo; conditions: 10 mg/kg orally
# GST-P = test: Immunohistochemical staining of GST-P foci in rat liver; assay type: in vivo
# PCNA = test: Western blot of PCNA in rat liver; assay type: in vivo; conditions: 10 mg/kg orally; for PCNA expression (PCNA : β-actin ratio): vs positive control
# Bax = test: Western blot of Bax in rat liver; assay type: in vivo; conditions: both experiments, 10 mg/kg orally
# Bcl-2 = test: Western blot of Bcl-2 in rat liver; assay type: in vivo; conditions: both experiments, 10 mg/kg orally
# p21 (Waf1/Cip1/Sdi1) = test: Western blot of p21 in rat liver; assay type: in vivo; conditions: both experiments, 10 mg/kg orally, vs positive control
# [10] = system: total p53 (wild type and mutant); test: Western blot of total p53 in rat liver nuclei; assay type: in vivo; conditions: 10 mg/kg orally
# wild type p53 = test: Immunoprecipitation and western blot of wild type p53 in rat liver nuclei; assay type: in vivo; conditions: 10 mg/kg orally
# Mdm2 = test: Western blot of Mdm2 in rat liver nuclei; assay type: in vivo; conditions: both experiments, 10 mg/kg orally, vs positive control (p < 0.05)
# p53 mRNA = test: Semi-quantitative RT-PCR of p53 mRNA in rat liver; assay type: in vivo; conditions: both experiments, 10 mg/kg orally, vs positive control (p < 0.05)
# Mdm2 mRNA = test: Semi-quantitative RT-PCR of Mdm2 mRNA in rat liver; assay type: in vivo; conditions: both experiments, 10 mg/kg orally, vs positive control (p < 0.05)
# [11] = progression experiment, p < 0.05
smiles,measurement,setting,value
"C=C1CC[C@@H]2[C@](C)(CO)[C@H](O)CC[C@@]2(C)[C@@H]1C/C=C1/C(=O)OC[C@H]1O [AND, andrographolide]",inhibitory effect on the proliferation of HepG2,"[1]; HepG2, human liver cancer cell line (Fig. 1)",significantly inhibitory effect
same,IC50,"[1]; HepG2, 24 hrs",17.5 µM
same,IC50,"[1]; HepG2, 48 hrs",16 µM
same,IC50,"[1]; HepG2, 72 hrs",17 µM
same,IC50 for HepG2 cells compared with WRL 68 cells,"[1]; all three time periods (24, 48 and 72 hrs), P < 0.05",significantly lower
same,IC50,"[2]; WRL 68, 24 hrs",57 µM
same,IC50,"[2]; WRL 68, 48 hrs",30 µM
same,IC50,"[2]; WRL 68, 72 hrs",35 µM
same,cytotoxicity,"[2]; WRL 68, at a concentration of 18 μM (Fig. 2)",significant cytotoxicity was also detectable
same,cytotoxicity,"[3]; Clone 9, at a concentration of 18 μM (Fig. 3)",significant cytotoxicity was also detectable
same,IC50,"[3]; Clone 9, 24 hrs",22 µM
same,IC50,"[3]; Clone 9, 48 hrs",18 µM
same,IC50,"[3]; Clone 9, 72 hrs",18 µM
same,percentage of cells suspended in the sub G1 phase of the cell cycle,"HepG2 cells [4]; 25 μM (Fig. 7, 48 hrs)",13.1%
same,accumulation of cells in G0/G1 phase of the cell cycle,"HepG2 cells [4]; 25 μM, 48 hrs (Fig. 7)",67.1%
same,populations of cells suspended in S and G2/M phases,"HepG2 cells [4]; 12.5 and 25 μM AND, 48 hrs, vs control (P < 0.05)",significantly decreased
same,accumulation of cells in the sub G1 and G0/G1 phases,"HepG2 cells [4]; 12.5 and 25 μM AND, 48 hrs, vs control cells",significantly induced the accumulation of cells
same,cells suspended in sub G1 phase,"HepG2 cells [4]; 20 and 25 μM AND, 24 hrs, vs 1% DMSO",more cells were suspended in sub Gi phase than those treated with DMSO only
same,"population of cells suspended in G0/G1, S and G2/M phases","HepG2 cells [4]; 20 and 25 μM AND, 24 hrs, vs control cells (P > 0.05)",no significant changes
same,DNA fragmentation,HepG2 cells [5],fragmentation at around 200 bp was detected
same,expression of BCL2L2 (Bcl-w) gene,[6],down-regulated
same,expression of BCL2 gene,[6],down-regulated
same,expression of CCND1 gene,[6],down-regulated
same,expression of CHEK2 gene,[6],down-regulated
same,expression of CYP 2A6 gene,[6],down-regulated
same,expression of CYP 2D6 gene,[6],down-regulated
same,expression of IL1B gene,[6],under-expressed
same,expression of NFKB2 gene,[6],under-expressed
same,expression of NQO1 (NAD(P)H dehydrogenase quinone 1) gene,[6],up-regulated
same,expression of RB1 gene,[6],up-regulated
same,expression of SOD1 (superoxide dismutase 1) gene,[6],up-regulated
same,expression of TYMS (thymidylate synthetase) gene,[6],up-regulated
same,expression of XDH (xanthine dehydrogenase) gene,[6],up-regulated
same,number of genes down-regulated 3-folds or more,[6],forty-two
same,number of genes up-regulated 3-folds or more,[6],six
same,gross appearance of liver,"[7]; progression experiment, 10 mg/kg orally, 56th week","some nodules present on the surface of the AND-treated livers, but the structure of the livers generally resembled that of the normal livers"
same,gross appearance of liver,"[7]; promotion experiment, 10 mg/kg orally once daily, 28 weeks",had a smooth surface and generally resembled the negative control livers
same,relative liver weight (liver weight/body weight),[8]; vs negative control,No significant difference
same,relative liver weight (liver weight/body weight),[8]; vs positive control,significant reduction
same,serum ALT level,[9]; [11],significant reduction
same,serum AST level,[9]; [11],significant reduction
same,serum ALT level,"[9]; promotion experiment, p < 0.01",significant reduction
same,serum AST level,"[9]; promotion experiment, p < 0.01",significant reduction
same,liver histology (H & E staining),rat liver (DEN & CCl4); progression experiment,normal alignment of hepatocytes around central vein
same,liver histology (H & E staining),rat liver (DEN & CCl4); promotion experiment,Liver structure was restored and hepatocyte arrangement was not as distorted as that of the positive control sections. Vacuolization was reduced and distinct cytoplasm was visible
same,number and area of GST-P positive foci,"GST-P; 10 mg/kg for 24 and 52 weeks, promotion and progression stages",a decrease in the number and area of GST-P positive foci
same,GST-P expression in liver section,"GST-P; promotion experiment, 10 mg/kg orally",the expression of GST-P was present but the affected area was reduced
same,PCNA expression,PCNA; both experiments,reduced in both experiments
same,PCNA expression (PCNA : β-actin ratio),PCNA; progression experiment,The level of PCNA expression in DEN-CCl4 treated rat was found to be significantly higher than that in the negative control and AND-treated groups
same,PCNA expression (PCNA : β-actin ratio),PCNA; promotion experiment,no significant difference
same,Bax expression,Bax,a reduction of Bax expression
same,protein levels of Bax (Bax : β-actin ratio),Bax; vs positive control (p < 0.05),significantly increased
same,Bcl-2 expression,Bcl-2,an increase in Bcl-2 expression
same,Bcl-2 protein expression (Bcl-2 : β-actin ratio),Bcl-2; vs positive control (p < 0.05),significantly lower
same,levels of p21 (p21 : β-actin ratio),p21 (Waf1/Cip1/Sdi1),"higher than positive control groups, but no significant difference is observed"
same,total p53 protein level (discussion),[10]; AND-treated group,the total p53 protein was increased
same,levels of total p53 protein expression,"[10]; both experiments, vs negative control (no significant difference)",higher levels of total p53 protein expression
same,levels of total p53 (total p53 : β-actin ratio),"[10]; both experiments, vs positive control",no significant difference
same,level of wild type p53 (wt. p53 : β-actin ratio),"wild type p53; progression experiment, vs positive control (p < 0.05)",a significant increase
same,level of wild type p53 (wt. p53 : β-actin ratio),"wild type p53; promotion experiment, vs positive control",no significant difference
same,levels of Mdm2 protein (Mdm2 : β-actin ratio),Mdm2,significant decrease
same,p53 mRNA expression (p53 : β-actin),p53 mRNA,significant reduction
same,Mdm2 mRNA expression (Mdm2 : β-actin),Mdm2 mRNA,significantly reduced
